From article PMC11087268, “A folate inhibitor exploits metabolic differences in Pseudomonas aeruginosa for narrow-spectrum targeting” (Nature Microbiology, 2024)
In brackets after ≈: the same amount, converted by molar mass. Several values for one entry are separate records, joined by “and”; a condition that tells them apart may be missing. Equal entries are not always repeated.

What was measured:
[1] = tested on: P. aeruginosa PA14; assay type: cell-based, Pseudomonas aeruginosa; settings: PA14, 4× MIC plates
[2] = tested on: Acinetobacter baumannii ATCC 17978; assay: MIC (WuXi, Mueller–Hinton broth) against A. baumannii ATCC 17978; assay type: cell-based; settings: ATCC17978, performed by WuXi
Method: (§1) Bacterial colonies (4–8) of strains of interest were vortexed in saline and adjusted to an OD600 of 0.2. Strains were diluted 1:200 into CAMHB media in 96-well plates. Antibiotics were serially diluted 1:3 in DMSO, and 1 μl of each dilution was added to bacteria. The plates were incubated for 18–20 h at 37 °C before observation.

[3] = tested on: S. epidermidis; assay: Growth with or without TMI supplementation and fluorofolin, S. epidermidis; assay type: cell-based, Staphylococcus epidermidis; settings: fluorofolin 2X MIC
Method: (§2) Where listed, growth media were prepared according manufacturer recommendations: LB broth and LB broth supplemented with 0.3 mM thymine (BD Biosciences 244610, Alfa Aesar A15879), 0.3 mM methionine (Sigma-Aldrich M9625), 0.3 mM inosine (EMD Millipore 4060), cation-adjusted Mueller–Hinton II broth (CAMHB) (BD 212322) or 0.3 mM thymidine (Sigma-Aldrich T1895), Gutnick minimal media (1.0 g l^−1 K2SO4, 13.5 g l^−1 K2HPO4, 4.7 g l^−1 KH2PO4, 0.1 g l^−1 MgSO4·7H2O, 10 mM NH4Cl as a nitrogen source and 0.4% w/v glucose as a carbon source)[65].
(§3) Extended Data Fig. 3 TMI supplementation can also rescue other species from fluorofolin DHFR inhibition. […] (f) P. aeruginosa PA14 or E. coli lptd4213 treated with fluorofolin 50 μg/mL in the presence or absence of 0.3 mM thymidine. (g) E. coli lptd4213 treated with fluorofolin 50 μg/mL and SMX (78.1 μg/mL) in the presence or absence of 0.3 mM thymidine or 0.3 mM TMI supplementation, Curves represent average optical at 600 nm (OD600) of 2 biological replicates. Means are shown. Source data

[4] = tested on: E. faecalis; assay: Growth with or without TMI supplementation and fluorofolin, E. faecalis; assay type: cell-based, Enterococcus faecalis; settings: fluorofolin 2X MIC
Method: as §2, §3

[5] = tested on: sheep red blood cells; assay: Haemolysis; assay type: cell-based; settings: biologically relevant concentrations
Method: (§4) Samples were treated at 37 °C with shaking for 1 h and then centrifuged. Supernatants were collected and absorbances were measured at 405 nm in a Tecan InfiniteM200 Pro microplate reader.

[6] = Haemolysis; assay type: cell-based, sheep; settings: sheep, defibrinated sheep red blood cells, 1 h, vs Triton X-100 100% lysis
Method: as §4

[7] = tested on: Salmonella typhimurium CMCC 50115; assay: MIC (WuXi, Mueller–Hinton broth) against S. typhimurium; assay type: cell-based; settings: Salmonella enterica, performed by WuXi
Method: as §1

[8] = tested on: Escherichia coli MG1655; assay: MIC against E. coli MG1655 in LB broth; assay type: cell-based; settings: 16 h, 37 °C, OD600
Method: (§5) Overnight cultures were diluted 1:150 in LB broth and added to a 96-well plate. Antibiotics were serially diluted 1:2 and added to columns of the 96-well plate and grown at 37 °C with continuous shaking. Cell growth was measured using optical density at 600 nm (OD600). MIC assays were performed in either BioTek Synergy HT or Tecan InfiniteM200 Pro microplate readers.

[9] = tested on: Klebsiella pneumoniae ATCC 438165; assay: MIC against K. pneumoniae in LB broth; assay type: cell-based; settings: ATCC438165, 16 h, 37 °C, OD600
Method: as §5

[10] = tested on: Staphylococcus epidermidis EGM-206; assay: MIC against S. epidermidis EGM-206 in LB broth; assay type: cell-based; settings: EGM206, 16 h, 37 °C, OD600
Method: as §5

[11] = Pharmacokinetic analysis after single oral dose; assay type: in vivo, mouse
Method: For pharmacokinetics determination, care and handling of male CD-1 mice approximately 6–8 weeks old conformed to institutional animal care and use policies as carried out at Pharmaron.
Pharmacokinetic properties were determined after a single dose of 200 mg kg^−1 fluorofolin given orally (PO). Plasma samples were taken from three mice at times 0.083, 0.25, 0.5, 1, 2, 4, 8 and 24 h, and quantitative analysis was performed using LC–MS/MS. Half-life was determined from plasma concentration after fluorofolin levels reached pseudo-equilibrium (4 h for mouse 1 and 2, and 2 h for mouse 3). Pharmacokinetic values were estimated using a non-compartmental model generated from WinNonlin 6.1. Pharmacokinetic analysis was carried out by Pharmaron.

[12] = CD-1 mice, 200 mg/kg PO, mean of three mice
[13] = male, mouse, plasma, CD-1 mice, 200 mg/kg PO, mean of three mice

Nc1nc(N)c2c(ccc3c2ccn3Cc2ccnc(F)c2)n1 [fluorofolin]
resistance frequency compared between antibiotics [1]: significantly lower resistance frequency than meropenem | MIC [2]: 0.8 µg/mL (≈ 2.59 µM) | rescue of growth inhibition by TMI supplementation [3]: could also be rescued from fluorofolin growth inhibition by TMI supplementation | rescue of growth inhibition by TMI supplementation [4]: could also be rescued from fluorofolin growth inhibition by TMI supplementation | permeabilization of red blood cell membranes [5]: did not cause significant permeabilization | hemolysis at 1 h, 0.78125 ug/mL ([6]; 0.78125 ug/mL): 0.966% | hemolysis at 1 h, 1.5625 ug/mL ([6]; 1.5625 ug/mL): 0.655% | hemolysis at 1 h, 3.125 ug/mL ([6]; 3.125 ug/mL): -0.334% | hemolysis at 1 h, 6.25 ug/mL ([6]; 6.25 ug/mL): 0.353% | hemolysis at 1 h, 12.5 ug/mL ([6]; 12.5 ug/mL): -0.799% | hemolysis at 1 h, 25 ug/mL ([6]; 25 ug/mL): -0.239% | hemolysis at 1 h, 50 ug/mL ([6]; 50 ug/mL): 13.7% | MIC [7]: 0.03 µg/mL (≈ 0.0973 µM) | MIC [8]: 0.625 µg/mL | MIC [9]: 6.25 µg/mL | MIC [10]: 0.312 µg/mL | plasma concentration ([11]; 0.083 h after 200 mg kg^−1 PO, one value per mouse): 1290 ng/mL and 1470 ng/mL | plasma concentration ([11]; 0.25 h after 200 mg kg^−1 PO, one value per mouse): 2880 ng/mL and 2500 ng/mL | plasma concentration ([11]; 0.5 h after 200 mg kg^−1 PO, one value per mouse): 3070 ng/mL and 2970 ng/mL | plasma concentration ([11]; 1 h after 200 mg kg^−1 PO, one value per mouse): 3980 ng/mL and 3260 ng/mL | plasma concentration ([11]; 2 h after 200 mg kg^−1 PO, one value per mouse): 4080 ng/mL and 3760 ng/mL | plasma concentration ([11]; 4 h after 200 mg kg^−1 PO, one value per mouse): 4460 ng/mL and 3060 ng/mL | plasma concentration ([11]; 8 h after 200 mg kg^−1 PO, one value per mouse): 2580 ng/mL and 1400 ng/mL | plasma concentration ([11]; 24 h after 200 mg kg^−1 PO, one value per mouse): 430 ng/mL and 287 ng/mL and 1740 ng/mL | AUC_% Extrap_obs [11, 12]: 23.3970% | AUC_last/D [11, 12]: 231.6700 h*ng/mL per mg/kg | T1/2 ([11]; CD-1 mice, 200 mg/kg PO, mean of three mice, 200 mg/kg): 12.1050 h | concentration at 0.083 h ([11]; male, CD-1, mouse, plasma, po, 200 mg kg^−1, 0.083 h after 200 mg kg^−1 PO, one value per mouse): 880 ng/mL | concentration at 0.25 h ([11]; male, CD-1, mouse, plasma, po, 200 mg kg^−1, 0.25 h after 200 mg kg^−1 PO, one value per mouse): 2220 ng/mL | concentration at 0.5 h ([11]; male, CD-1, mouse, plasma, po, 200 mg kg^−1, 0.5 h after 200 mg kg^−1 PO, one value per mouse): 2810 ng/mL | concentration at 1 h ([11]; male, CD-1, mouse, plasma, po, 200 mg kg^−1, 1 h after 200 mg kg^−1 PO, one value per mouse): 2930 ng/mL | concentration at 2 h ([11]; male, CD-1, mouse, plasma, po, 200 mg kg^−1, 2 h after 200 mg kg^−1 PO, one value per mouse): 3640 ng/mL | concentration at 4 h ([11]; male, CD-1, mouse, plasma, po, 200 mg kg^−1, 4 h after 200 mg kg^−1 PO, one value per mouse): 3460 ng/mL | concentration at 8 h ([11]; male, CD-1, mouse, plasma, po, 200 mg kg^−1, 8 h after 200 mg kg^−1 PO, one value per mouse): 1640 ng/mL | half-life ([11]; male, CD-1, mouse, plasma, po, 200 mg/kg, CD-1 mice, 200 mg/kg PO, mean of three mice): 12.1 h | AUC(0-inf) [11, 13]: 68800 ng·h/mL | AUC(0-t) [11, 13]: 46300 ng·h/mL | Cmax [11, 13]: 3950 ng/mL | Tmax [11, 13]: 2.67 h | MRT inf ([11]; male, mouse, plasma, CD-1 mice, 200 mg/kg PO, mean of three mice, read-out: MRT_Inf_obs): 18.2 h | peak concentration ([11]; mice, oral administration): 4.0 µg/mL
